Test results: patent US20230054333A1, “Herbicide Combinations Comprising Glufosinate and Saflufenacil” (BASF SE, priority 2020, published 2023)

Key:
Conditions in all cases: visual scale 0 to 100, mean of three replications
Palmer amaranth = test: Greenhouse post emergence treatment, visual herbicidal activity against Palmer amaranth; assay type: in vivo, Amaranthus palmeri
Excerpt: (§1) Synergism can be described as an interaction where the combined effect of two or more compounds is greater than the sum of the individual effects of each of the compounds. The presence of a synergistic effect in terms of percent control, between two mixing partners (X and Y) can be calculated using the Colby equation (Colby, S. R., 1967, Calculating Synergistic and Antagonistic Responses in Herbicide Combinations, Weeds, 15, 21-22):
(§2) When the observed combined control effect is greater than the expected (calculated) combined control effect (E), then the combined effect is synergistic.
(§3) Weeds included Palmer aamaranth (Amaranthus palmen) and crop plants included soybean (Glycine max) with glufosinate tolerance (Liberty Link, BASF) or glyphosate tolerance (Roundup Ready, Bayer). However, the herbicidal effect afforded by the compounds, mixtures or compositions is not limited to these species. The analysis of synergism or antagonism between the mixtures or compositions was determined using Colby's equation.
(§4) Pots with 0.3 L of volume were filled with soil (SunGro Horticulture, Agawam, MA 01001) to grow one plant per pot in the greenhouse until the desired developmental stage. […] During this time, the plants were tended, and their response to the individual treatments was evaluated. […]

LibertyLink Soybean = test: Greenhouse post emergence treatment, visual herbicidal activity against LibertyLink soybean; assay type: in vivo, Glycine max
Excerpt: as §1, §2, §3, §4

Roundup Ready Soybean = test: Greenhouse post emergence treatment, visual herbicidal activity against Roundup Ready soybean; assay type: in vivo, Glycine max
Excerpt: as §1, §2, §3, §4

SMILES	Herbicidal activity against Palmer amaranth (2 DAT) Found (Palmer amaranth; Glufosinate 280 g ai/ha)	Herbicidal activity against LibertyLink Soybean (2 DAT) Found (LibertyLink Soybean; Glufosinate 280 g ai/ha)	Herbicidal activity against Roundup Ready Soybean (2 DAT) Found (Roundup Ready Soybean; Glufosinate 280 g ai/ha)	Herbicidal activity against Palmer amaranth (2 DAT) Found (Palmer amaranth; Saflufenacil 1 g ai/ha)	Herbicidal activity against LibertyLink Soybean (2 DAT) Found (LibertyLink Soybean; Saflufenacil 1 g ai/ha)	Herbicidal activity against Roundup Ready Soybean (2 DAT) Found (Roundup Ready Soybean; Saflufenacil 1 g ai/ha)
CP(=O)(O)CCC(N)C(=O)O (racemic) [Glufosinate, (2RS)-2-amino-4-[hydroxy(methyl)phosphinoyl]butyric acid]	20	5	35			
CC(C)N(C)S(=O)(=O)NC(=O)c1cc(-n2c(=O)cc(C(F)(F)F)n(C)c2=O)c(F)cc1Cl [Saflufenacil]				4	1	0
